Experimental data published in paper PMC5843817, “Preclinical validations of [^18F]FPyPEGCBT-c(RGDfK): a ^18F-labelled RGD peptide prepared by ligation of 2-cyanobenzothiazole and 1,2-aminothiol to image angiogenesis” (EJNMMI Radiopharmacy and Chemistry, 2016).

Key:
[1] = test system: αVβ3, αVβ5 and α5β1 integrins on SKOV-3 cancer cells; test: [^125I]echistatin displacement cell binding assay, SKOV-3; parameters: species or system human; conditions: SKOV-3 cells; displacement of [^125I]echistatin; 1 h, 37 °C
Experimental: (§1) In vitro integrin-binding of FPyPEGCBT-c(RGDfK) was evaluated using a standard displacement assay of [^125I]echistatin. U-87 MG and SKOV-3 cells were seeded in 96-well plates 24 h prior to the experiment (U-87 MG, 6 × 10^4 cells per well; SKOV-3, 3 × 10^4 cells per well). On the day of the experiment, the cells were washed twice with binding buffer (20 mM Tris pH 7.4, 150 mM NaCl, 2 mM CaCl2, 1 mM MgCl2, 1 mM MnCl2, 0.1 % BSA), then co-incubated for 1 h at 37 °C in binding buffer with 370 Bq/well [^125I]echistatin (Perkin Elmer, Schwerzenbach, Switzerland) and a concentration range (10^−9 to 10^−4 M) of FPyPEGCBT-c(RGDfK) or c(RGDfV) (PeptaNova, Sandhausen, Germany) as a reference peptide. Cells were then washed three times with binding buffer and lysed in 1 M NaOH. The cell-associated radioactivity was measured in a Wizard^2 2470 γ-counter (Perkin Elmer). The IC50 (Inhibitory Concentration of 50 %) values were calculated by fitting the data by nonlinear regression using GraphPad Prism (GraphPad software, La Jolla, CA, USA).
(§2) Fig. 2 Displacement of [^125I]echistatin by FPyPEGCBT-c(RGDfK). U-87 MG and SKOV-3 cancer cells were co-incubated for 1 h in 96-well plates with 370 Bq/well [^125I]echistatin and a concentration range (10^−9 to 10^−4 M) of FPyPEGCBT-c(RGDfK) or c(RGDfV). After lysis, the cell-associated radioactivity was measured in a γ-counter. […]

[2] = test system: αVβ3, αVβ5 and α5β1 integrins on U-87 MG cancer cells; test: [^125I]echistatin displacement cell binding assay, U-87 MG; parameters: species or system human; conditions: U-87 MG cells; displacement of [^125I]echistatin; 1 h, 37 °C
Experimental: as §1, §2

c(RGDfV)
IC50 [1]: 0.259 ± 0.002 µM
IC50 [2]: 0.6 µM
